Measured values from patent US10030020B2, “Spirocycle compounds and methods of making and using same” (Abide Therapeutics, Inc., priority 2016, dated 2018).
Like-named read-outs stand apart in the source and are kept apart here.

Columns and labels:
MAGL [1] = biological target: T1, MAGL (Mus musculus (Mouse), UniProt O35678); assay: In vitro competitive activity-based protein profiling (mouse brain membrane fraction or cell lysates), MAGL band; assay type: biochemical; details: for inhibition at 1 µM: read-out: MAGL % Inh 1 μM (mouse)
T1 sequence (O35678 whole entry): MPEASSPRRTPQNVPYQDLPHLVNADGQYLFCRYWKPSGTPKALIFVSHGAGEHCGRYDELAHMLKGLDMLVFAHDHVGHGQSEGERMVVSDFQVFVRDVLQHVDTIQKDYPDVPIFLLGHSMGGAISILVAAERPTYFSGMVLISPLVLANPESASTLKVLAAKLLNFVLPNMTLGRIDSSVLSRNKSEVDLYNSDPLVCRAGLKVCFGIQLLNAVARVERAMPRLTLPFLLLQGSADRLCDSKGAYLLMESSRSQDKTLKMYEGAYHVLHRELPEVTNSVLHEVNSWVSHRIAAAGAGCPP
Procedure: In Vitro Competitive Activity-Based Protein Profiling.
Proteomes (mouse brain membrane fraction or cell lysates) (50 μL, 1.0 mg/mL total protein concentration) were preincubated with varying concentrations of inhibitors at 37° C. After 30 min, FP—Rh (1.0 μL, 50 μM in DMSO) was added and the mixture was incubated for another 30 min at 37° C. Reactions were quenched with SDS loading buffer (50 μL-4×) and run on SDS-PAGE.

ABHD6 [2] = biological target: T2, ABHD6 (Mus musculus (Mouse), UniProt Q8R2Y0); assay: In vitro competitive activity-based protein profiling (mouse brain membrane fraction or cell lysates), ABHD6 band; assay type: biochemical; details: for inhibition at 1 µM: read-out: ABHD6 % Inh 1 μM (mouse)
T2 sequence (Q8R2Y0 whole entry): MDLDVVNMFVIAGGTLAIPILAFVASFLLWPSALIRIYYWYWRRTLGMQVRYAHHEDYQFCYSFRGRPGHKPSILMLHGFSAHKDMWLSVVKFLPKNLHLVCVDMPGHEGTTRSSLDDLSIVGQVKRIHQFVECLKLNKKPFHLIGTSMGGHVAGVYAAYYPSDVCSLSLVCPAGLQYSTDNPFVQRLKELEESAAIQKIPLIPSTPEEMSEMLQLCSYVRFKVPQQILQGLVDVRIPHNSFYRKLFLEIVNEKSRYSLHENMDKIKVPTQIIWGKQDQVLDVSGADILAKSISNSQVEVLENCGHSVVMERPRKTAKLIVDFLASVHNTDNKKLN
How it was run: (§1)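 Competitive ABPP: proteome 1.0 mg/mL protein + inhibitor, 30 min, 37° C; FP-Rh probe (stock 50 μM in DMSO) added, 30 min, 37° C; SDS quench, SDS-PAGE, fluorescent band intensity read.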

FAAH [3] = biological target: T3, FAAH (Mus musculus (Mouse), UniProt O08914); assay: In vitro competitive activity-based protein profiling (mouse brain membrane fraction or cell lysates), FAAH band; assay type: biochemical; details: for inhibition at 1 µM: read-out: FAAH % Inh 1 μM (mouse)
T3 sequence (O08914 whole entry): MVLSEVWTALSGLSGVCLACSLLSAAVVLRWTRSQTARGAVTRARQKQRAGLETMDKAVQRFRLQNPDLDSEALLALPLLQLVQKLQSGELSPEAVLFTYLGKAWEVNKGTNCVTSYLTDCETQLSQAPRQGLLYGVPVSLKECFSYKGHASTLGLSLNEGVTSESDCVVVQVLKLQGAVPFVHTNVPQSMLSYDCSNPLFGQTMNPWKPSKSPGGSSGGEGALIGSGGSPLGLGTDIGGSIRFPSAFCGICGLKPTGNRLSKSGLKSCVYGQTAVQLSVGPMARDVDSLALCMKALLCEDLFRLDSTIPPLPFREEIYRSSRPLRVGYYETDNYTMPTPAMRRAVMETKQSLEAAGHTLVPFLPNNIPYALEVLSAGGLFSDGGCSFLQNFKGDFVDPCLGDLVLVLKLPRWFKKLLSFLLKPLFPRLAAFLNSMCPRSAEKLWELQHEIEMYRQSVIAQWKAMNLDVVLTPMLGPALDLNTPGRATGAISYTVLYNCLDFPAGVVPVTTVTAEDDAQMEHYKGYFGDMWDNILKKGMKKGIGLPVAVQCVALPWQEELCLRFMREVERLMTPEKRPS
How it was run: as §1

MAGL [4] = biological target: MAGL (Homo sapiens (Human), UniProt Q99685); assay: In vitro competitive activity-based protein profiling (human prefrontal cortex or cell membrane fractions; hMAGL expressed in HEK293T cells); assay type: biochemical
MAGL (Homo sapiens (Human), UniProt Q99685), sequence (Q99685 whole entry): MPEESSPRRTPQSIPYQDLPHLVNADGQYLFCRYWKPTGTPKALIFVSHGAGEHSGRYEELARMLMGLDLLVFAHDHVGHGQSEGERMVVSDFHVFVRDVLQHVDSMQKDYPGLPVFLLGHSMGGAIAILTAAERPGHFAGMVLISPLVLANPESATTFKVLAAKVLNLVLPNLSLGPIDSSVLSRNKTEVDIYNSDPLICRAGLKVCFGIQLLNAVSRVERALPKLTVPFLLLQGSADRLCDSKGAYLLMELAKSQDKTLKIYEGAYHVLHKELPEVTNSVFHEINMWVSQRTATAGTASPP
Procedure: In Vitro Competitive Activity-Based Protein Profiling (Human).
Proteomes (human prefrontal cortex or cell membrane fractions) (50 μL, 1.0-2.0 mg/mL total protein concentration) were preincubated with varying concentrations of inhibitors at 37° C. After 30 min, FP—Rh or JW912 (1.0 μL, 50 μM in DMSO) was added and the mixture was incubated for another 30 min at room temperature. Reactions were quenched with SDS loading buffer (15 μL-4×) and run on SDS-PAGE.
Recombinant Expression of Human MAGL in HEK293T Cells.
Cell lysates were diluted with mock proteomes for use in competitive ABPP experiments.

MAGL [5] = biological target: T1, MAGL; assay: Mouse brain proteomes from inhibitor treated mice (oral gavage, sacrificed 4 h after administration, ABPP analysis); assay type: in vivo, mouse (C57Bl/6J); details: 5 mg/kg oral gavage
How it was run: (§2)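 Read-out is % inhibition at 5 mg/kg in brain proteomes profiled by activity-based protein profiling. Inhibitors were dosed orally to wild-type C57Bl/6J mice, with sacrifice at 4 h.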

FAAH [6] = biological target: T3, FAAH; assay: Mouse brain proteomes from inhibitor treated mice (oral gavage, sacrificed 4 h after administration, ABPP analysis), FAAH; assay type: in vivo, mouse (C57Bl/6J); details: 5 mg/kg oral gavage
How it was run: as §2

ABHD6 [7] = biological target: T2, ABHD6; assay: Mouse brain proteomes from inhibitor treated mice (oral gavage, sacrificed 4 h after administration, ABPP analysis), ABHD6; assay type: in vivo, mouse (C57Bl/6J); details: 5 mg/kg oral gavage
How it was run: as §2

[8] = mouse proteome, competitive ABPP
[9] = human proteome, competitive ABPP

| inhibition at 1 µM (MAGL [1]; mouse proteome) [%] | IC50 (MAGL [1]; [8]) [nM] | inhibition at 1 µM (ABHD6 [2]; mouse proteome) [%] | IC50 (ABHD6 [2]; [8]) [nM] | inhibition at 1 µM (FAAH [3]; mouse proteome) [%] | IC50 (FAAH [3]; [8]) [nM] | IC50 (MAGL [4]; [9]) [nM] | MAGL % Inh 5 mg/kg (mouse) (MAGL [5]) | FAAH % Inh 5 mg/kg (mouse) (FAAH [6]) | ABHD6 % Inh 5 mg/kg (mouse) (ABHD6 [7]) | inhibition at 1 µM (MAGL [1]; mouse) [%] | inhibition at 1 µM (ABHD6 [2]; mouse) [%] | inhibition at 1 µM (FAAH [3]; mouse) [%] | IC50 (MAGL [4]; human) [nM] | IC50 (MAGL [1]; mouse) [nM] | IC50 (ABHD6 [2]; mouse) [nM] | IC50 (FAAH [3]; mouse) [nM] | SMILES |
| --- | --- | --- | --- | --- | --- | --- | --- | --- | --- | --- | --- | --- | --- | --- | --- | --- | --- |
| > 75 | < 100 | ≥ 75 | 100 to 1000 | < 25 | > 1000 | < 100 | ### (### is ≥75%) | # (# is <25%) | ### (### is ≥75%) |  |  |  |  |  |  |  | O=C(O)C1CCN(c2cc(C(F)(F)F)ccc2CN2CCC3(CCN(C(=O)OC(C(F)(F)F)C(F)(F)F)CC3)C2)CC1 [Example 119, 1-(2-((8-(((1,1,1,3,3,3-Hexafluoropropan-2-yl)oxy)carbonyl)-2,8-diazaspiro[4.5]decan-2-yl)methyl)-5-(trifluoromethyl)phenyl)piperidine-4-carboxylic acid] |
| > 75 | < 100 | < 25 | > 1000 | < 25 | > 1000 | < 100 | ### (### is ≥75%) | # (# is <25%) | # (# is <25%) |  |  |  |  |  |  |  | O=C(OC(C(F)(F)F)C(F)(F)F)N1CCC2(CCCN2Cc2ccc(C(F)(F)F)c(N3CCOCC3)c2)CC1 [Example 133, 1,1,1,3,3,3-Hexafluoropropan-2-yl 1-(3-morpholino-4-(trifluoromethyl)benzyl)-1,8-diazaspiro[4.5]decane-8-carboxylate] |
| > 75 | < 100 | < 25 | > 1000 | < 25 | > 1000 | < 100 | ### (### is ≥75%) | # (# is <25%) | # (# is <25%) |  |  |  |  |  |  |  | O=C(O)C1CCN(c2cc(Cl)ccc2CN2CCCC23CCN(C(=O)OC(C(F)(F)F)C(F)(F)F)CC3)CC1 [Example 120, 1-(5-Chloro-2-((8-(((1,1,1,3,3,3-hexafluoropropan-2-yl)oxy)carbonyl)-1,8-diazaspiro[4.5]decan-1-yl)methyl)phenyl)piperidine-4-carboxylic acid] |
|  |  |  |  |  |  |  | ### (### is ≥75%) | # (# is <25%) | # (# is <25%) | > 75 | < 25 | < 25 | < 100 |  |  |  | O=C(O)C1CCN(Cc2cc(Cl)cc(CN3CCCC34CCN(C(=O)OC(C(F)(F)F)C(F)(F)F)CC4)c2)C1 (stereo not drawn) [Example 272] |
|  |  |  |  |  |  |  | # (# is <25%) | # (# is <25%) | # (# is <25%) | > 75 | 25 to 75 | < 25 | < 100 |  |  |  | O=C(O)C1CCN(C(=O)c2cc(C(F)(F)F)ccc2CN2CCCC23CCN(C(=O)OC(C(F)(F)F)C(F)(F)F)CC3)CC1 [Example 281] |
|  |  |  |  |  |  |  | ### (### is ≥75%) | # (# is <25%) | # (# is <25%) | > 75 | < 25 | < 25 | < 100 |  |  |  | CC1(C(=O)O)CCCN(c2cc(CN3CCCC34CCN(C(=O)OC(C(F)(F)F)C(F)(F)F)CC4)cc(C(F)(F)F)c2)C1 (stereo not drawn) [Example 221] |
|  |  |  |  |  |  |  | ### (### is ≥75%) | # (# is <25%) | # (# is <25%) | > 75 | < 25 | < 25 | < 100 | 100 to 1000 | > 1000 | > 1000 | O=C(O)C1CCN(Cc2cc(C(F)(F)F)ccc2CN2CCCC23CCN(C(=O)OC(C(F)(F)F)C(F)(F)F)CC3)CC1 [Example 238] |
|  |  |  |  |  |  |  | ### (### is ≥75%) | # (# is <25%) | # (# is <25%) | > 75 | 25 to 75 | < 25 | < 100 |  |  |  | O=C(O)[C@H]1CCCCN1c1cc(CN2CCCC23CCN(C(=O)OC(C(F)(F)F)C(F)(F)F)CC3)cc(C(F)(F)F)c1 [Example 274] |
|  |  |  |  |  |  |  |  |  |  | > 75 | ≥ 75 | < 25 | > 1000 |  |  |  | O=C(O)c1ccc(CN2CCC3(CCN(C(=O)OC(C(F)(F)F)C(F)(F)F)CC3)C2)cc1C(F)(F)F [Example 258] |
|  |  |  |  |  |  |  |  |  |  | > 75 | 25 to 75 | < 25 | < 100 |  |  |  | NC(=O)C1CCN(C(=O)c2cc(C(F)(F)F)ccc2CN2CCCC23CCN(C(=O)OC(C(F)(F)F)C(F)(F)F)CC3)CC1 [Example 276] |
|  |  |  |  |  |  |  |  |  |  | > 75 | ≥ 75 | < 25 | < 100 |  |  |  | O=C(O)C1CCN(Cc2ccc(CN3CCC4(CCN(C(=O)OC(C(F)(F)F)C(F)(F)F)CC4)C3)cc2C(F)(F)F)CC1 [Example 247] |
| > 75 |  | ≥ 75 |  | < 25 |  | < 100 |  |  |  |  |  |  |  |  |  |  | CC1(C(=O)O)CCN(c2cc(C(F)(F)F)ccc2CN2CCC3(CCN(C(=O)OC(C(F)(F)F)C(F)(F)F)CC3)C2)C1 (stereo not drawn) [Example 219] |

| SMILES | inhibition at 1 µM (MAGL [1]; mouse proteome) [%] | IC50 (MAGL [1]; [8]) [nM] | inhibition at 1 µM (ABHD6 [2]; mouse proteome) [%] | IC50 (ABHD6 [2]; [8]) [nM] | inhibition at 1 µM (FAAH [3]; mouse proteome) [%] | IC50 (FAAH [3]; [8]) [nM] | IC50 (MAGL [4]; [9]) [nM] | MAGL % Inh 5 mg/kg (mouse) (MAGL [5]) | FAAH % Inh 5 mg/kg (mouse) (FAAH [6]) | ABHD6 % Inh 5 mg/kg (mouse) (ABHD6 [7]) | inhibition at 1 µM (MAGL [1]; mouse) [%] | inhibition at 1 µM (ABHD6 [2]; mouse) [%] | inhibition at 1 µM (FAAH [3]; mouse) [%] | IC50 (MAGL [4]; human) [nM] | IC50 (MAGL [1]; mouse) [nM] | IC50 (ABHD6 [2]; mouse) [nM] | IC50 (FAAH [3]; mouse) [nM] |
| --- | --- | --- | --- | --- | --- | --- | --- | --- | --- | --- | --- | --- | --- | --- | --- | --- | --- |
| O=C(O)C1CCN(c2cc(CN3CCCC34CCN(C(=O)OC(C(F)(F)F)C(F)(F)F)CC4)cc(C(F)(F)F)c2)CC1 [Example 123, 1-(3-((8-(((1,1,1,3,3,3-Hexafluoropropan-2-yl)oxy)carbonyl)-1,8-diazaspiro[4.5]decan-1-yl)methyl)-5-(trifluoromethyl)phenyl)piperidine-4-carboxylic acid] | > 75 | < 100 | < 25 | > 1000 | < 25 | > 1000 | < 100 | ### (### is ≥75%) | # (# is <25%) | ## (## is equal to or greater than 25% but less than 75%) |  |  |  |  |  |  |  |
| O=C(OC(C(F)(F)F)C(F)(F)F)N1CCC2(CCCN2Cc2ccc(C(F)(F)F)cc2N2CCN(CCF)CC2)CC1 [Example 20, 1,1,1,3,3,3-Hexafluoropropan-2-yl 1-(2-(4-(2-fluoroethyl)piperazin-1-yl)-4-(trifluoromethyl)benzyl)-1,8-diazaspiro[4.5]decane-8-carboxylate] |  | < 100 |  | > 1000 |  | > 1000 | < 100 | ## (## is equal to or greater than 25% but less than 75%) | # (# is <25%) | # (# is <25%) |  |  |  |  |  |  |  |
| O=C(O)C1CCN(Cc2cc(Cl)cc(CN3CCCC34CCN(C(=O)OC(C(F)(F)F)C(F)(F)F)CC4)c2)CC1 [Example 194, 1-(3-Chloro-5-((8-(((1,1,1,3,3,3-hexafluoropropan-2-yl)oxy)carbonyl)-1,8-diazaspiro[4.5]decan-1-yl)methyl)benzyl)piperidine-4-carboxylic acid] | > 75 |  | < 25 |  | < 25 |  | < 100 | ## (## is equal to or greater than 25% but less than 75%) | # (# is <25%) | # (# is <25%) |  |  |  |  |  |  |  |
